According to ChEMBL document CHEMBL1201862, “PubChem BioAssay data set” (2004):
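Each compound was tested at five concentrations against cells in 96-well plates for 48 hours. The concentration for 50% growth inhibition is given as GI50.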 The source made the active and inactive calls. Rule as the data show it: active = GI50 up to about 1.1 µM and inactive = higher.

How the values were obtained:
Experiment in all cases: DTP human tumour cell line panel, 48 h
PC-3 = test system: PC-3
SNB-75 = test system: SNB-75
KM12 = test system: KM12
OVCAR-8 = test system: OVCAR-8
SW-620 = test system: SW-620
MCF7 = test system: MCF7
UACC-257 = test system: UACC-257
HOP-62 = test system: HOP-62
LOX IMVI = test system: LOX IMVI
HL-60 = test system: HL-60
786-0 = test system: 786-0
SK-OV-3 = test system: SK-OV-3
CCRF-CEM = test system: CCRF-CEM
MOLT-4 = test system: MOLT-4
SN12C = test system: SN12C
HCC 2998 = test system: HCC 2998
NCI-H23 = test system: NCI-H23
SF-539 = test system: SF-539
SF-295 = test system: SF-295
NCI-H226 = test system: NCI-H226

## COc1cc(/C=C2\CCC(C)c3c2nc(N)c(C#N)c3-c2cc(OC)c(OC)c(OC)c2)cc(OC)c1OC (centres undefined)
PC-3
  GI50: 55.1 µM (inactive)
SNB-75
  GI50: 0.165 µM (active)
KM12
  GI50: 51.6 µM (inactive)
OVCAR-8
  GI50: 13.2 µM (inactive)
SW-620
  GI50: 81.8 µM (inactive)
MCF7
  GI50: 29.9 µM (inactive)
UACC-257
  GI50: > 100 µM (inactive)
HOP-62
  GI50: > 100 µM (inactive)
LOX IMVI
  GI50: 41.5 µM (inactive)
HL-60
  GI50: 49.1 µM (inactive)
786-0
  GI50: 37.4 µM (inactive)
SK-OV-3
  GI50: > 100 µM (inactive)
CCRF-CEM
  GI50: 23.7 µM (inactive)
MOLT-4
  GI50: 25.2 µM (inactive)
SN12C
  GI50: 44.4 µM (inactive)

## COc1cc(OCCN(C)C)c2[nH]c(C(=O)N3CC(CCl)c4c3cc(N)c3ccccc43)cc2c1 (centres undefined)
PC-3
  GI50: < 0.01 µM (active)
HCC 2998
  GI50: < 0.01 µM (active)
SNB-75
  GI50: < 0.01 µM (active)
NCI-H23
  GI50: < 0.01 µM (active)
KM12
  GI50: < 0.01 µM (active)
SF-539
  GI50: < 0.01 µM (active)
OVCAR-8
  GI50: < 0.01 µM (active)
SW-620
  GI50: < 0.01 µM (active)
MCF7
  GI50: < 0.01 µM (active)
UACC-257
  GI50: < 0.01 µM (active)
HOP-62
  GI50: < 0.01 µM (active)
SF-295
  GI50: < 0.01 µM (active)
LOX IMVI
  GI50: < 0.01 µM (active)
786-0
  GI50: < 0.01 µM (active)
NCI-H226
  GI50: < 0.01 µM (active)
SK-OV-3
  GI50: 0.0148 µM (active)
CCRF-CEM
  GI50: < 0.01 µM (active)
SN12C
  GI50: < 0.01 µM (active)

## NS(=O)(=O)c1nnc(NS(=O)(=O)C(F)(F)F)s1
PC-3
  GI50: > 100 µM (inactive)
HCC 2998
  GI50: > 100 µM (inactive)
SNB-75
  GI50: > 100 µM (inactive)
NCI-H23
  GI50: 77.3 µM (inactive)
KM12
  GI50: > 100 µM (inactive)
SF-539
  GI50: > 100 µM (inactive)
OVCAR-8
  GI50: > 100 µM (inactive)
SW-620
  GI50: > 100 µM (inactive)
MCF7
  GI50: > 100 µM (inactive)
HOP-62
  GI50: > 100 µM (inactive)
SF-295
  GI50: > 100 µM (inactive)
HL-60
  GI50: > 100 µM (inactive)
786-0
  GI50: > 100 µM (inactive)
NCI-H226
  GI50: > 100 µM (inactive)
SK-OV-3
  GI50: > 100 µM (inactive)
MOLT-4
  GI50: > 100 µM (inactive)

## CC1(C)OCC2OC3([C@H](O)CCO)OC(C)(C)OC3C2O1 (some centres undefined)
PC-3
  GI50: > 100 µM (inactive)
HCC 2998
  GI50: > 100 µM (inactive)
SNB-75
  GI50: > 100 µM (inactive)
NCI-H23
  GI50: > 100 µM (inactive)
KM12
  GI50: > 100 µM (inactive)
SF-539
  GI50: > 100 µM (inactive)
OVCAR-8
  GI50: > 100 µM (inactive)
SW-620
  GI50: > 100 µM (inactive)
MCF7
  GI50: > 100 µM (inactive)
UACC-257
  GI50: > 100 µM (inactive)
HOP-62
  GI50: > 100 µM (inactive)
SF-295
  GI50: > 100 µM (inactive)
LOX IMVI
  GI50: > 100 µM (inactive)
786-0
  GI50: > 100 µM (inactive)
NCI-H226
  GI50: > 100 µM (inactive)
CCRF-CEM
  GI50: > 100 µM (inactive)
MOLT-4
  GI50: > 100 µM (inactive)
SN12C
  GI50: > 100 µM (inactive)

## CC1(C)CC[C@]2(C)CC=C3[C@]4(C)CC[C@H]5C(C)(C)C(=O)CC[C@]5(C)[C@H]4CC[C@@]3(C)[C@H]2C1
PC-3
  GI50: > 100 µM (inactive)
HCC 2998
  GI50: > 100 µM (inactive)
NCI-H23
  GI50: > 100 µM (inactive)
KM12
  GI50: > 100 µM (inactive)
SF-539
  GI50: > 100 µM (inactive)
OVCAR-8
  GI50: > 100 µM (inactive)
SW-620
  GI50: > 100 µM (inactive)
MCF7
  GI50: > 100 µM (inactive)
UACC-257
  GI50: > 100 µM (inactive)
HOP-62
  GI50: > 100 µM (inactive)
SF-295
  GI50: > 100 µM (inactive)
LOX IMVI
  GI50: > 100 µM (inactive)
786-0
  GI50: > 100 µM (inactive)
NCI-H226
  GI50: > 100 µM (inactive)
SK-OV-3
  GI50: > 100 µM (inactive)
CCRF-CEM
  GI50: > 100 µM (inactive)
MOLT-4
  GI50: > 100 µM (inactive)
SN12C
  GI50: > 100 µM (inactive)

## CC[S+]([O-])C(=O)N(O)c1ccc(Cl)cc1 (centres undefined)
PC-3
  GI50: 37.4 µM (inactive)
HCC 2998
  GI50: 43.3 µM (inactive)
SNB-75
  GI50: 32.1 µM (inactive)
KM12
  GI50: 15.6 µM (inactive)
SF-539
  GI50: 24.9 µM (inactive)
SW-620
  GI50: 18 µM (inactive)
MCF7
  GI50: 20.4 µM (inactive)
UACC-257
  GI50: 23.2 µM (inactive)
HOP-62
  GI50: > 100 µM (inactive)
SF-295
  GI50: 85.7 µM (inactive)
LOX IMVI
  GI50: 11.7 µM (inactive)
786-0
  GI50: 21.7 µM (inactive)
NCI-H226
  GI50: 84.1 µM (inactive)
SK-OV-3
  GI50: > 100 µM (inactive)
CCRF-CEM
  GI50: 12.6 µM (inactive)
MOLT-4
  GI50: 9.64 µM (inactive)
SN12C
  GI50: 22.3 µM (inactive)

## CNC(=O)OCc1c2ccncc2c(C)c2c1[nH]c1ccccc12
PC-3
  GI50: 0.723 µM (active)
HCC 2998
  GI50: 0.206 µM (active)
SNB-75
  GI50: 0.21 µM (active)
NCI-H23
  GI50: 0.195 µM (active)
KM12
  GI50: 0.449 µM (active)
SF-539
  GI50: 0.207 µM (active)
OVCAR-8
  GI50: 0.125 µM (active)
SW-620
  GI50: 0.136 µM (active)
MCF7
  GI50: 0.0455 µM (active)
UACC-257
  GI50: 0.587 µM (active)
HOP-62
  GI50: 0.494 µM (active)
SF-295
  GI50: 0.292 µM (active)
LOX IMVI
  GI50: 0.136 µM (active)
786-0
  GI50: 0.262 µM (active)
NCI-H226
  GI50: 0.258 µM (active)
SK-OV-3
  GI50: 0.288 µM (active)
CCRF-CEM
  GI50: 0.0962 µM (active)
MOLT-4
  GI50: 0.0659 µM (active)
SN12C
  GI50: 0.275 µM (active)

## CC12CC(C/C1=N/O)C(C)(C)C2 (centres undefined)
PC-3
  GI50: > 100 µM (inactive)
HCC 2998
  GI50: > 100 µM (inactive)
SNB-75
  GI50: > 100 µM (inactive)
NCI-H23
  GI50: > 100 µM (inactive)
KM12
  GI50: > 100 µM (inactive)
SF-539
  GI50: > 100 µM (inactive)
OVCAR-8
  GI50: > 100 µM (inactive)
SW-620
  GI50: > 100 µM (inactive)
MCF7
  GI50: > 100 µM (inactive)
UACC-257
  GI50: > 100 µM (inactive)
HOP-62
  GI50: > 100 µM (inactive)
SF-295
  GI50: > 100 µM (inactive)
HL-60
  GI50: > 100 µM (inactive)
786-0
  GI50: > 100 µM (inactive)
NCI-H226
  GI50: > 100 µM (inactive)
SK-OV-3
  GI50: > 100 µM (inactive)
CCRF-CEM
  GI50: > 100 µM (inactive)
SN12C
  GI50: > 100 µM (inactive)
